In the Deep4Chem optical property database one finds absorption maximum data, which are given here for 35 molecules.

The nature of the data set: solvent given as SMILES.

The structures appear in SMILES notation.

Where the note is “in ClCCl”, `c1ccc2c(-c3cc4c(ccc5sc(-c6cccc7ccccc67)cc54)s3)cccc2c1` registered an absorption maximum of 333 nm.
In the case of `Cc1ccc(C)n1-c1ccc(C#N)cc1`, the absorption maximum (in C1CCOC1) worked out at 275 nm, the absorption maximum (in CCCCCC) is 275 nm, the absorption maximum (in CCCCCl) is on record as 275 nm and the absorption maximum (in CCOCC) was 275 nm.
With `Fc1nc(F)c(F)c(C#Cc2ccccc2C#Cc2c(F)c(F)nc(F)c2F)c1F`, the absorption maximum (in CC#N) is 300 nm.
On to `c1ccc(-c2nc(-c3c4ccccc4cc4ccccc34)n3ccccc23)cc1`, for which the absorption maximum is 375 nm (in C1CCCCC1); 375 nm (in CC#N); 366 nm (in CO); 382 nm (in ClCCl); 375 nm (in O).
Regarding `c1ccc(-c2nc(-c3ccccc3)nc(-c3ccc(-n4c5ccccc5c5cc(-c6ccc7sc8ccccc8c7c6)ccc54)cc3)n2)cc1`, the absorption maximum (in Cc1ccccc1) was determined as 370 nm.
On the same count and under the same terms, to `CC1(C)c2ccccc2N(c2ccc(-c3ccc(C#N)cc3)cc2)c2ccccc21` belongs 358 nm.
Take `[BH3-][P+]1(c2ccccc2)c2ccccc2-c2sc3ccccc3c21` (configuration not stated): the absorption maximum is reported as 324 nm (in C1CCCCC1), 323 nm (in CC#N), 323 nm (in CCO) and 325 nm (in ClCCl).
In turn, `CCN1CCN(c2ccc(/N=N/c3cc(C(=O)OC)cc(C(=O)OC)c3)cc2)CC1` registered an absorption maximum (in CCOC(C)=O) of 416 nm.
In the case of `CN(C)c1ccc(C2=Cc3ccc4ccccc4[n+]3[B-](F)(F)O2)cc1`, the absorption maximum (in C1CCOC1) worked out at 472 nm; the absorption maximum (in C1COCCO1) is recorded as 472 nm; the absorption maximum (in CC1CCCCC1) was 473 nm; the absorption maximum (in CC#N) turned out to be 468 nm; the absorption maximum (in CCOC(C)=O) is recorded as 468 nm; the absorption maximum (in CCOCC) is given as 467 nm. The absorption maximum is 474 nm (in CN(C)C=O), 468 nm (in CO), 468 nm (in COC(C)=O) and 477 nm (in ClC(Cl)Cl).
`CC(C)[Si](C#Cc1c2nc3ccccc3nc2c(C#C[Si](C(C)C)(C(C)C)C(C)C)c2nc3ccccc3nc12)(C(C)C)C(C)C` came in with an absorption maximum (in CCCCCC) of 681 nm.
For the molecule `C1=[N+](c2ccccc2)[B-](c2ccccc2)(c2ccccc2)Oc2c1ccc1c3c(ccc21)C=[N+](c1ccccc1)[B-](c1ccccc1)(c1ccccc1)O3`, the absorption maximum came out at 536 nm (in Cc1ccccc1) and 529 nm (in ClCCl).
Molecule `C[C@]12SC(=O)C=C1c1nc(-c3ccc(Cl)cc3)[nH]c1C1=CC(=O)S[C@@]12C` came in with an absorption maximum (in CC#N) of 451 nm.
For the molecule `Cc1ccc(C2=C3C=C4C(=[N+]3[B-](F)(F)n3c2cc2c3-c3ccccc3C23c2ccccc2-c2ccccc23)c2ccccc2C42c3ccccc3-c3ccccc32)cc1`, the absorption maximum (in C1CCOC1) is recorded as 634 nm.
As to `C[C@]12SC(=O)C=C1c1nc(-c3ccccc3)[nH]c1C1=CC(=O)S[C@@]12C`, the absorption maximum (in CC#N) came out at 460 nm.
Where the note is “in ClC(Cl)Cl”, `C[N+]1=c2ccc3c(c2C(C)(C)CC1)Oc1cc2c(cc1C=3c1ccccc1C(=O)O)C(c1ccccc1C(=O)O)=c1ccc3c(c1O2)C(C)(C)CC[N+]=3C` returned an absorption maximum of 617 nm.
In the case of `CCCCCCN1C(=O)c2cccc3c(-c4ccc(-c5cc(-c6ccccc6)n(-c6ccccc6)n5)s4)ccc(c23)C1=O`, for the setting “in ClCCl”, the absorption maximum was 400 nm.
`CCn1c(-c2ccc(-c3ccc4c(c3)C(c3ccccc3)(c3ccccc3)c3ccccc3-4)cc2)c(-c2ccc3ccccc3c2)c(-c2ccc3ccccc3c2)c1-c1ccc(-c2ccc3c(c2)C(c2ccccc2)(c2ccccc2)c2ccccc2-3)cc1` displayed an absorption maximum (in CCOC(C)=O) of 325 nm.
Take `COc1ccc(-c2cc3c(ccc(=O)n3C)s2)cc1`: the absorption maximum runs as follows: (in CC#N) 376 nm; (in ClCCl) 378 nm.
The molecule `c1ccc(-c2ccccc2)cc1` yielded an absorption maximum (in C1CCCCC1) of 254.13 nm and an absorption maximum (in C1COCCO1) of 246 nm.
In the case of `CC(C)c1ccc2ccc3cccc4ccc1c2c34`, the absorption maximum runs as follows: (in CCCCCC) 338 nm; (in CO) 337 nm; (in ClCCl) 340 nm.
As to `O=C1/C(=C2\Sc3ccc(S(=O)(=O)Nc4ccccc4)cc3C2=O)Sc2ccc(S(=O)(=O)Nc3ccccc3)cc21`, the absorption maximum came to 534 nm (in C1COCCO1), 542 nm (in CN(C)C=O), 536 nm (in CO) and 546 nm (in CS(C)=O).
With `CN1/C(=C/C=C(/C=C/C2=[N+](C)c3ccccc3C2(C)C)c2ccc(C(F)(F)F)cc2)C(C)(C)c2ccccc21`, the absorption maximum (in CCO) turned out to be 637 nm, the absorption maximum (in CO) came out at 634 nm, the absorption maximum (in CS(C)=O) was 643 nm and the absorption maximum (in O) was 632 nm.
Take `CCn1c2ccccc2c2cc(/C=C3\C(=O)c4ccccc4S3(=O)=O)ccc21`: the absorption maximum by setting is: (in C1CCOC1) 446 nm; (in C1COCCO1) 443 nm; (in CC#N) 442 nm; (in CC(C)=O) 442 nm; (in CCOC(C)=O) 441 nm; (in CN(C)C=O) 449 nm. For the same molecule, the absorption maximum was found to be 446 nm (in CO); 454 nm (in CS(C)=O); 453 nm (in Cc1ccccc1); 454 nm (in ClC(Cl)Cl); 448 nm (in ClCCl).
Take `CCCCCCN1C(=O)c2cccc3c(-c4ccc(OC)s4)ccc(c23)C1=O`: the absorption maximum (in ClC(Cl)Cl) was 407 nm.
`CCN(CC)c1ccc(-n2c(C)ccc2C)cc1`: the absorption maximum runs as follows: (in CC#N) 304 nm; (in CCCCCC) 310 nm.
With `C#Cc1ccc(C#Cc2cnc(C#Cc3ccccc3)nc2)cc1`, the absorption maximum (in C1CCCCC1) came to 325 nm.
As to `N#Cc1cc(-n2c3ccccc3c3ccccc32)c(-n2c3ccccc3c3ccccc32)cc1C#N`, the absorption maximum is, setting by setting: (in C1CCOC1) 368 nm; (in CC#N) 367 nm; (in Cc1ccccc1) 375 nm; (in ClCCl) 364 nm.
With `CCCN1c2ccccc2Sc2cc(/C=C\c3cc(=O)oc4cc(O)ccc34)ccc21`, the absorption maximum (in ClC(Cl)Cl) is 422 nm.
As to `Cc1cc(C)c(C)c(-c2ccc3cc(C)c(=O)oc3c2)c1C`, the absorption maximum reads like this: (in C1CCCCC1) 312 nm; (in CC#N) 314 nm; (in CO) 315 nm.
`CSc1ccc(-c2nc3sc4ccccc4c3s2)cc1` showed an absorption maximum (in CS(C)=O) of 365 nm.
For the setting “in C1CCOC1”, `CCCCn1c2ccccc2c2c1c1c3ccccc3n(CCCC)c1c1c3ccccc3n(CCCC)c21` yielded an absorption maximum of 316 nm.
`Cc1ccc(/C=C(\c2ccccc2)c2nc3ccccc3o2)cc1` displayed an absorption maximum (in C1CCCCC1) of 325 nm and an absorption maximum (in CO) of 330 nm.
`C(#Cc1ccccc1)C(C#Cc1ccccc1)=Cc1cccc(C=C(C#Cc2ccccc2)C#Cc2ccccc2)c1`: for the setting “in ClC(Cl)Cl”, the absorption maximum is listed as 349 nm.
Under “in ClC(Cl)Cl”, `CCCCc1ccc(-n2c3c4cc(F)ccc4nc(-c4ccc(OC)cc4)c3c3c2c2c(-c4ccc(OC)cc4)nc4ccc(F)cc4c2n3-c2ccc(CCCC)cc2)cc1` had an absorption maximum of 305 nm.
The same measure, in the same setting: to `CC(C)(C)N1C(=O)c2c(cc3ccc4cccc5ccc2c3c45)C1O` (configuration not stated) belongs 385 nm.
